Source: patent publication US10092584B2 (Achillion Pharmaceuticals, Inc., priority 2015, dated 2018)
pIC50: −log10 of the molar value. Structures can show the parent of a compound that is named as a salt. Where two headings read alike, the source gives them in different places.

Molecular target: T1, Human Factor D (Homo sapiens, UniProt P00746)
T1 construct: purified from human serum; purchased Complement Technology, Inc; host or cells: human serum
Assay: Human Factor D assay (Example 8)
Type: biochemical
Summary of the method: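 Serum-purified human Factor D (80 nM final) was preincubated with test compound at various concentrations for 5 min at room temperature in 50 mM Tris, 1M NaCl, pH 7.5. Z-L-Lys-SBzl and DTNB were then added at 100 μM each. IC50 came from nonlinear regression of reaction rates versus compound concentration.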

[1] = Table 3, Human Factor D 80 nM, substrate Z-L-Lys-SBzl, read-out: IC50 (Stars)
[2] = Table 1, Human Factor D 80 nM, substrate Z-L-Lys-SBzl, read-out: IC50
[3] = Table 2, Human Factor D 80 nM, substrate Z-L-Lys-SBzl, read-out: IC50

T1 sequence (P00746 26-253): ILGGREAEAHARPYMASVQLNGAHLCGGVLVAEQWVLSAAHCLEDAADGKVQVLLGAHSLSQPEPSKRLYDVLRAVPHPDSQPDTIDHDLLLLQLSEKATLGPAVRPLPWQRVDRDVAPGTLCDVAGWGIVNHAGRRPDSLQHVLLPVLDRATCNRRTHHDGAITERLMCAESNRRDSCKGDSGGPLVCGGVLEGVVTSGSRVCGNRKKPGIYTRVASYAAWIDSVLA

Structure (SMILES)	pIC50 [1]	pIC50 [2]	further results
NC(=O)c1nn(CC(=O)N2CC(F)(F)C[C@H]2C(=O)Nc2cccc(-c3ccccc3Cl)c2F)c2ccccc12 [Compound 353, (S)-1-(2-(2-((2′-chloro-2-fluoro-[1,1′-biphenyl]-3-yl)carbamoyl)-4,4-difluoropyrrolidin-1-yl)-2-oxoethyl)-1H-indazole-3-carboxamide]	> 6.00		
CC(=O)n1cc(NC(=O)[C@@H]2C[C@@H](F)CN2C(=O)NCc2cccc(Cl)c2F)c2ccccc21 [Compound 3, (2S,4R)-N2-(1-acetyl-1H-indol-3-yl)-N1-(3-chloro-2-fluorobenzyl)-4-fluoropyrrolidine-1,2-dicarboxamide]		< 5.00	
CC(=O)c1cn(CC(=O)N2C[C@H](F)C[C@H]2C(=O)Nc2cccc(-c3ccccc3Cl)c2F)c2cc(Cl)ccc12 [Compound 328, (2S,4R)-1-(2-(3-acetyl-6-chloro-1H-indol-1-yl)acetyl)-N-(2′-chloro-2-fluoro-[1,1′-biphenyl]-3-yl)-4-fluoropyrrolidine-2-carboxamide]	> 6.00		
O=C(Nc1cccc(-c2ccccc2Cl)c1F)[C@@H]1C[C@@H](F)CN1C(=O)Cn1c(=O)[nH]c2ccccc21 [Compound 142, (2S,4R)-N-(2′-chloro-2-fluorobiphenyl-3-yl)-4-fluoro-1-(2-(2-oxo-2,3-dihydro-1H-benzo[d]imidazol-1-yl)acetyl) pyrrolidine-2-carboxamide]			pIC50 [3]: > 6.00
CC(=O)c1cn(CC(=O)N2C[C@H](F)C[C@H]2C(=O)Nc2cccc(-c3ccc(F)c(F)c3Cl)c2F)c2ccccc12 [Compound 93, (2S,4R)-1-(2-(3-acetyl-1H-indol-1-yl)acetyl)-N-(2′-chloro-2,3′,4′-trifluorobiphenyl-3-yl)-4-fluoropyrrolidine-2-carboxamide]			pIC50: > 6.00
NC(=O)c1nn(CC(=O)N2C[C@H](F)C[C@H]2C(=O)Nc2cccc(-c3ccc4c(c3Cl)NCCN4)c2F)c2ccccc12 [Compound 443, 1-(2-((2S,4R)-2-((3-(5-Chloro-1,2,3,4-tetrahydroquinoxalin-6-yl)-2-fluorophenyl)carbamoyl)-4-fluoropyrrolidin-1-yl)-2-oxoethyl)-1H-indazole-3-carboxamide]	> 6.00		
CC(C)(C)OC(=O)N1CCc2c(n(CC(=O)N3C[C@H](F)C[C@H]3C(=O)NCc3cccc(Cl)c3F)c3ccccc23)C1 [Compound 67, tert-butyl 9-(2-((2S,4R)-2-(3-chloro-2-fluorobenzylcarbamoyl)-4-fluoropyrrolidin-1-yl)-2-oxoethyl)-3,4-dihydro-1H-pyrido[3,4-b]indole-2(9H)-carboxylate]		< 5.00	
CC(=O)n1cc(CC(=O)N2C[C@H](F)C[C@H]2C(=O)Nc2cccc(-c3ccccc3Cl)c2F)c2ccsc21 [Compound 90, (2S,4R)-1-(2-(6-acetyl-6H-thieno[2,3-b]pyrrol-4-yl)acetyl)-N-(2′-chloro-2-fluorobiphenyl-3-yl)-4-fluoropyrrolidine-2-carboxamide]		> 6.00	
NC(=O)c1nn(CC(=O)N2C(=O)CC[C@H]2C(=O)Nc2cccc(-c3ccccc3Cl)c2F)c2ccccc12 [Compound 135, (S)-1-(2-(2-((2′-Chloro-2-fluoro-[1,1′-biphenyl]-3-yl)carbamoyl)-5-oxopyrrolidin-1-yl)-2-oxoethyl)-1H-indazole-3-carboxamide]			pIC50 [3]: > 6.00
N#Cc1cccc2c(C(N)=O)nn(CC(=O)N3C[C@H](F)C[C@H]3C(=O)Nc3cccc(-c4ccccc4Cl)c3F)c12 [Compound 111, 1-(2-((2S,4R)-2-((2′-Chloro-2-fluoro-[1,1′-biphenyl]-3-yl)carbamoyl)-4-fluoropyrrolidin-1-yl)-2-oxoethyl)-7-cyano-1H-indazole-3-carboxamide]			pIC50: > 6.00
NC(=O)c1nn(CC(=O)N2C[C@H](F)[C@@H](O)[C@H]2C(=O)Nc2cccc(-c3ccccc3Cl)c2F)c2ccccc12 [Compound 279, 1-(2-((2S,3S,4S)-2-(2′-Chloro-2-fluorobiphenyl-3-ylcarbamoyl)-4-fluoro-3-hydroxypyrrolidin-1-yl)-2-oxoethyl)-1H-indazole-3-carboxamide]	> 6.00		
O=C(NCc1cccc(Cl)c1F)[C@@H]1C[C@@H](F)CN1C(=O)c1csc(-c2cccnc2)n1 [Compound 50, (2S,4R)-N-(3-chloro-2-fluorobenzyl)-4-fluoro-1-(2-(pyridin-3-yl)thiazole-4-carbonyl)pyrrolidine-2-carboxamide]		< 5.00	
CC(=O)c1cn(C(C)C(=O)N2C[C@H](F)C[C@H]2C(=O)NCc2cccc(Cl)c2F)c2ccccc12 (some centres unmarked) [Compound 55]		< 5.00	
CC(=O)c1nn(CC(=O)N2C[C@H](F)C[C@H]2C(=O)Nc2cccc(SC(F)(F)F)c2)c2cnccc12 [Compound 45, (2S,4R)-1-(2-(3-acetyl-1H-pyrazolo[3,4-c]pyridin-1-yl)acetyl)-4-fluoro-N-(3-(trifluoromethylthio)phenyl)pyrrolidine-2-carboxamide]		> 6.00	
CC(=O)c1nn(CC(=O)N2C[Si](C)(C)C[C@H]2C(=O)Nc2cccc(Br)n2)c2ccccc12 [Compound 271, (R)-1-(2-(3-acetyl-1H-indazol-1-yl)acetyl)-N-(6-bromopyridin-2-yl)-3,3-dimethyl-1,3-azasilolidine-5-carboxamide]	5.00 to 6.00		
NC(=O)c1nn(CC(=O)N2C[C@H](F)C[C@H]2C(=O)Nc2cccc(-c3ccccc3Cl)c2F)c2cc(C(=O)O)sc12 [Compound 132, 3-carbamoyl-1-(2-((2S,4R)-2-(2′-chloro-2-fluorobiphenyl-3-ylcarbamoyl)-4-fluoropyrrolidin-1-yl)-2-oxoethyl)-1H-thieno[3,2-c]pyrazole-5-carboxylic acid]			pIC50 [3]: > 6.00
CC(=O)c1nn(CC(=O)N2C[C@H](F)C[C@H]2C(=O)Nc2cccc(-c3ccc4c(c3)NCCC4)c2F)c2ccccc12 [Compound 450, (2S,4R)-1-(2-(3-Acetyl-1H-indazol-1-yl)acetyl)-4-fluoro-N-(2-fluoro-3-(1,2,3,4-tetrahydroquinolin-7-yl)phenyl)pyrrolidine-2-carboxamide]	> 6.00		
CC(=O)c1nn(CC(=O)N2C[C@H](F)C[C@H]2C(=O)Nc2cccc(-c3ccc4[nH]cnc4c3Cl)c2F)c2ccccc12 [Compound 461, (2S,4R)-1-(2-(3-acetyl-1H-indazol-1-yl)acetyl)-N-(3-(4-chloro-1H-benzo[d]imidazol-5-yl)-2-fluorophenyl)-4-fluoropyrrolidin-2-carboxamide]	> 6.00		
CC(=O)c1cn(CC(=O)N2C[C@H](F)C[C@H]2C(=O)Nc2cccc(Br)n2)c2ccc(C3(N4C(=O)c5ccccc5C4=O)CC3)cc12 [Compound 81, (2S,4R)-1-(2-(3-acetyl-5-(1-(1,3-dioxoisoindolin-2-yl)cyclopropyl)-1H-indol-1-yl)acetyl)-N-(6-bromopyridin-2-yl)-4-fluoropyrrolidine-2-carboxamide]			pIC50: > 6.00
NC(=O)c1nc(CC(=O)N2C[C@H](F)C[C@H]2C(=O)Nc2cccc(-c3ccccc3Cl)c2F)n2ccccc12 [Compound 373, 3-(2-((2S,4R)-2-((2′-Chloro-2-fluoro-[1,1′-biphenyl]-3-yl)carbamoyl)-4-fluoropyrrolidin-1-yl)-2-oxoethyl)imidazo[1,5-a]pyridine-1-carboxamide]	> 6.00		
O=C(NCc1cccc(Cl)c1F)[C@@H]1C[C@@H](F)CN1C(=O)Cn1cc([N+](=O)[O-])c2ccccc21 [Compound 46, (2S,4R)-N-(3-chloro-2-fluorobenzyl)-4-fluoro-1-(2-(3-nitro-1H-indol-1-yl)acetyl)pyrrolidine-2-carboxamide]		> 6.00	
CC(=O)c1cn(CC(=O)N2C[C@H](F)C[C@H]2C(=O)Nc2cccc(-c3ccccc3Cl)c2F)c2cccc(C#N)c12 [Compound 97, (2S,4R)-1-(2-(3-acetyl-4-cyano-1H-indol-1-yl)acetyl)-N-(2′-chloro-2-fluorobiphenyl-3-yl)-4-fluoropyrrolidine-2-carboxamide]			pIC50: > 6.00
CC(=O)c1cn(CC(=O)N2C[C@H](F)[C@@H](OCC3CC3)[C@H]2C(=O)NCc2cccc(Cl)c2F)c2cc(O)ccc12 [Compound 21, (2S,3S,4S)-1-(2-(3-acetyl-6-hydroxy-1H-indol-1-yl)acetyl)-N-(3-chloro-2-fluorobenzyl)-3-(cyclopropylmethoxy)-4-fluoropyrrolidine-2-carboxamide]			pIC50: > 6.00
CC(=O)c1cn(CC(=O)N2CC(F)C(OCC3CC3)[C@H]2C(=O)NCc2cccc(Cl)c2F)c2cc(O)ccc12 (stereo partly drawn) [Compound 25, (2S)-1-(2-(3-acetyl-6-hydroxy-1H-indol-1-yl)acetyl)-N-(3-chloro-2-fluorobenzyl)-3-(cyclopropylmethoxy)-4-fluoropyrrolidine-2-carboxamide]			pIC50: > 6.00
CC(=O)c1nn(CC(=O)N2C[C@H](F)C[C@H]2C(=O)Nc2cccc(-c3ccc4c(c3)NCCN4)c2F)c2ccccc12 [Compound 436]	> 6.00		
Cc1sc(Cl)cc1NC(=O)[C@@H]1C[C@@H](F)CN1C(=O)Cn1nc(C(N)=O)c2ccncc21 [Compound 351]	5.00 to 6.00		
NC(=O)N1C[C@H](F)C[C@H]1Cn1cc(-c2ccc(F)c(Cl)c2)nn1 [Compound 30, (2S,4R)-2-((4-(3-chloro-4-fluorophenyl)-1H-1,2,3-triazol-1-yl)methyl)-4-fluoropyrrolidine-1-carboxamide]		< 5.00	
CC(=O)c1cn(CC(=O)N2C[C@H](F)C[C@H]2C(=O)NCc2cccc(Cl)c2F)c2cc(C(=N)N)ccc12 [Compound 382, (2S,4R)-1-(2-(3-Acetyl-6-carbamimidoyl-1H-indol-1-yl)acetyl)-N-(3-chloro-2-fluorobenzyl)-4-fluoropyrrolidine-2-carboxamide TFA]	> 6.00		
NC(=O)c1nn(CC(=O)N2C[C@H](F)C[C@H]2C(=O)Nc2cccc(-c3c(F)cc(F)cc3Cl)n2)c2cnccc12 [Compound 100, 1-(2-((2S,4R)-2-(6-(2-chloro-4,6-difluorophenyl)pyridin-2-ylcarbamoyl)-4-fluoropyrrolidin-1-yl)-2-oxoethyl)-1H-pyrazolo[3,4-c]pyridine-3-carboxamide]		> 6.00	
